Measured values published in publication PMC9865645, “The Impact of N^ε-Acryloyllysine Piperazides on the Conformational Dynamics of Transglutaminase 2” (International Journal of Molecular Sciences, 2023).

Biological target: T1, hTGase 2 (Homo sapiens, UniProt P21980)
T1 construct: purchased Zedira (Darmstadt, Germany) T022, lot 0716a
T1 sequence (P21980 1-687): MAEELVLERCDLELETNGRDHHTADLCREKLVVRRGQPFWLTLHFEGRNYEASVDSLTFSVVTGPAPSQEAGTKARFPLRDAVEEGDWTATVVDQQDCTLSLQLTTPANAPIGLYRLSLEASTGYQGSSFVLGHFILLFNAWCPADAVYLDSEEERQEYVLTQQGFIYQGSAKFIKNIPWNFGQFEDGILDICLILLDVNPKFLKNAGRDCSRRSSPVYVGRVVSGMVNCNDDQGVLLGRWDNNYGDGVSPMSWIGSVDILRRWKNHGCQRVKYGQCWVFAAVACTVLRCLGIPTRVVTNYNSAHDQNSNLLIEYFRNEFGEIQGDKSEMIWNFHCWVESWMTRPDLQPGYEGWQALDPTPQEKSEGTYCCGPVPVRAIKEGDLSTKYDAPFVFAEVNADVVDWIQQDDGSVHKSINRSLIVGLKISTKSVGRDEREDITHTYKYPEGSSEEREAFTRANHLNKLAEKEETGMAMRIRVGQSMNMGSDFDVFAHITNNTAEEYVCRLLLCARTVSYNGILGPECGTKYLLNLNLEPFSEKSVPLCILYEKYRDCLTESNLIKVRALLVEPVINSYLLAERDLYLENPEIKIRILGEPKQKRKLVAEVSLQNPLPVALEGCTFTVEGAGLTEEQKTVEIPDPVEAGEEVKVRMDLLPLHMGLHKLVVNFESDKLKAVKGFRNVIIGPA
Assay: switchSENSE dynamic mode: upward motion (relative inverse slope, friction) of hTGase 2-dsDNA lever
Conditions: GTPγS 20 nM or Ca^2+ 1 mM; non-directed and His-tag-directed labeling
Protocol: Prior to the measurement of the switching kinetics of the differently conjugated hTGase 2, a complementary ssDNA without the enzyme (500 nM) was hybridized to the single-stranded capture strands on the chip electrodes to obtain the reference kinetics of the dsDNA lever. In addition, to determine the impact of CaCl2 and DMSO on the movement of the bare dsDNA lever, and thus on reference kinetics, its switching behavior was investigated in TE40, TE40 + 1 mM CaCl2, TE40 + 1 mM CaCl2 + 1% DMSO or TE40 + 1 mM CaCl2 + 0.1% DMSO.
Then, the dehybridization of the reference lever occurred during a regeneration step followed by the hybridization with an ssDNA-hTGase 2 conjugate (500 nM). Thereafter, the switching kinetics was recorded. […]
The impact on the hydrodynamic drag of the hTGase 2-functionalized lever was investigated under identical conditions for the three irreversible inhibitors 1–3: At first, the switching kinetics of the dsDNA lever and the hTGase 2-dsDNA conjugates were recorded. Secondly, the switching kinetics of the hTGase 2-dsDNA conjugates during and after Ca^2+ exposure were recorded using TE40 + 1 mM CaCl2 or TE40, respectively. […] In this process, the hydrodynamic drag was analyzed during the exposure to 10 µM inhibitor (for 6 min) dissolved in TE40 + 1 mM CaCl2 + 0.1% DMSO and to TE40 afterward. […]

Q: With `Nc1nc2c(ncn2[C@@H]2O[C@H](COP(=O)(O)OP(=O)(O)OP(O)(O)=S)[C@@H](O)[C@H]2O)c(=O)[nH]1` [GTPγS] as the compound, how does the “relative inverse slope of hTGase 2-dsDNA lever versus pure buffer without effector” value read?
A: Its value is “significantly smaller”.
